Measurements as given in patent US20220079924A1, “GLUCOCORTICOID RECEPTOR MODULATORS” (ORIC Pharmaceuticals, Inc., priority 2018, published 2022).

molecular target: T1, GR (Homo sapiens, UniProt P04150); test: In Vitro GR Luciferase Reporter Assay (antagonist assay); assay type: cell-based; conditions: CHO-K1-GR-MMTV-Luc reporter cells, 10 nM Dexamethasone, 18-24 hours
T1 construct: expressed in transfected cells; host or cells: CHO-K1 (CHO-K1-GR-MMTV-Luc reporter cells)
T1 sequence (P04150 1-777): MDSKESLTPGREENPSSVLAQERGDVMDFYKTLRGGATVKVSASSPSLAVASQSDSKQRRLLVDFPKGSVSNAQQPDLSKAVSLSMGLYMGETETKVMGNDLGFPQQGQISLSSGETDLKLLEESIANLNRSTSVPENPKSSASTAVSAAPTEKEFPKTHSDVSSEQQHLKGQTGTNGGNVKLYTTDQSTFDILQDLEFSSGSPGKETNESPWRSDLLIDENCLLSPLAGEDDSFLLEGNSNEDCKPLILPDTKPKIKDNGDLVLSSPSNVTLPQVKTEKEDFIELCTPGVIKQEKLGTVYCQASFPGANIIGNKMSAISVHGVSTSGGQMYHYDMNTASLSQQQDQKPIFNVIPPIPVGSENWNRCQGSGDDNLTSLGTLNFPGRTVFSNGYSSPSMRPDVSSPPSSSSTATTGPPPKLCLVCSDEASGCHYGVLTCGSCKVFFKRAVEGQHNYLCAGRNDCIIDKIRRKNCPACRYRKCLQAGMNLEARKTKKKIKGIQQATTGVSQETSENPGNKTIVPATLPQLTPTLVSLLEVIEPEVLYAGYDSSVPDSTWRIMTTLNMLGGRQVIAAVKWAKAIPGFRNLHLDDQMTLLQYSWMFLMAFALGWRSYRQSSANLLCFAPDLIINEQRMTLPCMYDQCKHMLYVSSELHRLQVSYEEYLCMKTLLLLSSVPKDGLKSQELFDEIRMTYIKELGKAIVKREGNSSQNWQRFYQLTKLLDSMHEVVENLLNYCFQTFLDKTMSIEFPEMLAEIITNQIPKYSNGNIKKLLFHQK
Experimental: Example A: In Vitro GR Luciferase Reporter Assay
Cell Line: CHO-K1-GR-MMTV-Luc reporter cells
Culture Media: DMEM (with phenol red)+10% FBS
Assay Media: DMEM (without phenol red)+10% CSS
Culture CHO-K1-GR-MMTV-Luc reporter cells in T175 flasks in Culture Media at conditions less than 90% confluence.
Using Bravo (Agilent) liquid handler:
200× DMSO 1:3 serial dilutions of control and test compounds in 96-well non-sterile V bottom plate in DMSO, 12 points for each compound were prepared.
Prepared 5× compound serial dilutions: Add 97.5 μL/well of Assay Media into 96-well non-sterile V bottom plate then added 2.5 ul of 200× concentration of compounds and mix well.
Seeded cells for Antagonist Assay: 5200 CHO-K1-GR-MMTV-Luc reporter cells were seeded in Greiner #781080 flat clear bottom 384-well white TC plate in 20 ul of Assay Media containing 12.5 nM Dexamethasone (final concentration=10 nM).
Added compounds: 5 μl of 5× compounds were added to appropriate wells and followed with a quick spin (1000 rpm, 10 sec) to bring media and cells to the bottom of plate. The plates were covered with SealMate film to avoid evaporation and placed in 37° C. incubator for approximately 18-24 hours.
Read plates: Equilibrate appropriate amount of Promega OneGlo luciferase reagent to room temperature. Remove the plates from incubator and add 25 uL of OneGlo reagent/well by Bravo and read the plates on Tecan Spark plate reader within 15 minutes.
The ability of the compounds disclosed herein to inhibit GR activity was quantified and the respective IC50 value was determined. Table 1 provides the cellular IC50 values of compounds disclosed herein.

| SMILES | IC50 [nM] |
| --- | --- |
| Cn1ccc(S(=O)(=O)N(C2CC2)[C@H]2CCC3=Cc4c(cnn4-c4ccc(F)cc4)C[C@]3(C(=O)c3cc(Cl)ccn3)C2)c1 [Example 67] | ≤ 100 |
| CC(C)N([C@H]1CCC2=Cc3c(cnn3-c3ccc(F)nc3)C[C@]2(C(=O)c2cc(F)ccn2)C1)S(=O)(=O)c1cnn(C)c1 [Example 68] | ≤ 100 |
| CC(C)N([C@H]1CCC2=Cc3c(cnn3-c3ccc(F)nc3)C[C@]2(C(=O)c2cc(C(F)(F)F)ccn2)C1)S(=O)(=O)c1cnn(C)c1 [Example 69] | ≤ 100 |
| Cn1cnc(S(=O)(=O)N(C2CC(F)(F)C2)[C@H]2CCC3=Cc4c(cnn4-c4ccc(F)nc4)C[C@]3(C(=O)c3cc(F)ccn3)C2)n1 [Example 70] | ≤ 100 |
| Cn1cc(S(=O)(=O)N(C2CC(F)(F)C2)[C@H]2CCC3=Cc4c(cnn4-c4ccc(F)nc4)C[C@]3(C(=O)c3cc(F)ccn3)C2)cn1 [Example 71] | ≤ 100 |
| Cn1cc(-n2ncc3c2C=C2CC[C@H](N(C4CC4)S(=O)(=O)c4ccc(F)cc4)C[C@@]2(C(=O)c2cc(C(F)(F)F)ccn2)C3)ccc1=O [Example 73] | > 1000 |
| Cn1cc(S(=O)(=O)N(C2CC2)[C@H]2CCC3=Cc4c(cnn4-c4ccc(F)cn4)C[C@]3(C(=O)c3cc(C(F)(F)F)ccn3)C2)cn1 [Example 74] | ≤ 100 |
| Cn1cnc(S(=O)(=O)N(C2CC(F)(F)C2)[C@H]2CCC3=Cc4c(cnn4-c4ccc(F)nc4)C[C@]3(C(=O)c3cc(C(C)(C)C)ccn3)C2)n1 [Example 75] | ≤ 100 |
| Cn1cc(S(=O)(=O)N(C2CC(F)(F)C2)[C@H]2CCC3=Cc4c(cnn4-c4ccc(F)nc4)C[C@]3(C(=O)c3cc(C(C)(C)C)ccn3)C2)cn1 [Example 76] | ≤ 100 |
| CC([C@H]1CCC2=Cc3c(cnn3-c3ccc(F)cc3)C[C@]2(C(=O)c2cc(F)ccn2)C1)S(=O)(=O)c1ncn(C)n1 (some centres unmarked) [Example 77] | ≤ 100 |
| Cn1cnc(S(=O)(=O)N(CC(F)(F)F)[C@H]2CCC3=Cc4c(cnn4-c4ccc(F)nc4)C[C@]3(C(=O)c3cc(F)ccn3)C2)n1 [Example 78] | ≤ 100 |
| CC(C)N([C@H]1CCC2=Cc3c(cnn3-c3ccc(F)cc3)C[C@]2(C(=O)c2cc(F)ccn2)C1)S(=O)(=O)c1cnn(C)c1 [Example 79] | ≤ 100 |
| Cn1cc(S(=O)(=O)N(C2CC2)[C@H]2CCC3=Cc4c(cnn4-c4ccc(F)cc4)C[C@]3(C(=O)c3cc(F)ccn3)C2)cn1 [Example 80] | ≤ 100 |
| CC(C)N([C@H]1CCC2=Cc3c(cnn3-c3ccc(F)cc3)C[C@]2(C(=O)c2cc(F)ccn2)C1)S(=O)(=O)c1ncn(C)n1 [Example 81] | ≤ 100 |
| Cn1cnc(S(=O)(=O)N(CC(F)(F)F)[C@H]2CCC3=Cc4c(cnn4-c4ccc(F)cc4)C[C@]3(C(=O)c3cc(F)ccn3)C2)c1 [Example 82] | ≤ 100 |
| C[C@H]([C@H]1CCC2=Cc3c(cnn3-c3ccc(F)cc3)C[C@]2(C(=O)c2cc(F)ccn2)C1)S(=O)(=O)c1ncn(C)n1 [Example 83] | ≤ 100 |

| SMILES | IC50 [nM] |
| --- | --- |
| CC(C)N([C@H]1CCC2=Cc3c(cnn3-c3ccc(F)nc3)C[C@]2(C(=O)c2cc(F)ccn2)C1)S(=O)(=O)c1ccn(C)n1 [Example 84] | ≤ 100 |
| CC(C)N([C@H]1CCC2=Cc3c(cnn3-c3ccc(F)nc3)C[C@]2(C(=O)c2cc(Cl)ccn2)C1)S(=O)(=O)c1ccn(C)n1 [Example 85] | ≤ 100 |
| C[C@H]([C@H]1CCC2=Cc3c(cnn3-c3ccc(F)cc3)C[C@]2(C(=O)c2cc(Cl)ccn2)C1)S(=O)(=O)c1ncn(C)n1 [Example 86] | ≤ 100 |
| CC(C)N([C@H]1CCC2=Cc3c(cnn3-c3ccc(F)cc3)C[C@]2(C(=O)c2cc(F)ccn2)C1)S(=O)(=O)c1cn(C)cn1 [Example 87] | ≤ 100 |
| Cn1ccc(S(=O)(=O)C(C)(C)[C@H]2CCC3=Cc4c(cnn4-c4ccc(F)cc4)C[C@]3(C(=O)c3cc(C(F)(F)F)ccn3)C2)n1 [Example 88] | ≤ 100 |
| Cn1ccc(S(=O)(=O)N(C2CC2)[C@H]2CCC3=Cc4c(cnn4-c4ccc(F)nc4)C[C@]3(C(=O)c3cc(F)ccn3)C2)n1 [Example 89] | ≤ 100 |
| Cn1cnc(S(=O)(=O)[C@H]2CCC3=Cc4c(cnn4-c4ccc(F)cc4)C[C@]3(C(=O)c3cc(C(F)F)ccn3)C2)n1 [Example 90] | ≤ 100 |
| Cn1cnc(S(=O)(=O)[C@H]2CCC3=Cc4c(cnn4-c4ccc(F)cc4)C[C@]3(C(=O)c3ccc(F)cn3)C2)n1 [Example 91] | ≤ 100 |
| Cn1cnc(S(=O)(=O)[C@H]2CCC3=Cc4c(cnn4-c4ccc(F)cc4)C[C@]3(C(=O)c3ccc(C(F)F)cn3)C2)n1 [Example 92] | ≤ 100 |
| CCn1cnc(S(=O)(=O)[C@H]2CCC3=Cc4c(cnn4-c4ccc(F)cc4)C[C@]3(C(=O)c3ccc(C(F)(F)F)cn3)C2)n1 [Example 93] | ≤ 100 |
| CCN([C@H]1CCC2=Cc3c(cnn3-c3ccc(F)nc3)C[C@]2(C(=O)c2cc(F)ccn2)C1)S(=O)(=O)c1ncn(C)n1 [Example 94] | ≤ 100 |
| O=C(c1ccc(C2CC2)cn1)[C@]12Cc3cnn(-c4ccc(F)cc4)c3C=C1CC[C@H](S(=O)(=O)c1ncn(CC(F)(F)F)n1)C2 [Example 95] | ≤ 100 |
| Cn1cnc(S(=O)(=O)N(C2CC2)[C@H]2CCC3=Cc4c(cnn4-c4ccc(F)cc4)C[C@]3(C(=O)c3cc4c(cn3)OCCO4)C2)n1 [Example 96] | ≤ 100 |
| Cn1cnc(S(=O)(=O)[C@H]2CCC3=Cc4c(cnn4-c4ccc(F)cc4)C[C@]3(C(=O)c3cc4c(cn3)OCCO4)C2)n1 [Example 97] | ≤ 100 |
| Cn1cc(S(=O)(=O)N[C@H]2CCC3=Cc4c(cnn4-c4ccc(F)cc4)C[C@]3(C(=O)c3cc(F)ccn3)C2)cn1 [Example 98] | 100 to 1000 |
| O=C(c1cc(F)ccn1)[C@]12Cc3cnn(-c4ccc(F)cc4)c3C=C1CC[C@H](N(C1CC(F)(F)C1)S(=O)(=O)c1cn[nH]c1)C2 [Example 99] | ≤ 100 |
